For orientation: EC50 means the midpoint of the concentration-response curve. A higher EC50 goes with weaker potency. Usually CC50 stands for the concentration that lowers cell viability or growth by half. A higher CC50 goes with better tolerance by the cells.

Molecules are shown by their SMILES.

The subject of one data set is HBV. Put plainly: Anti-HBV activity: HBV DNA in culture medium by qPCR, HepG2.2.15 cells. As to conditions: Hepatitis B virus, 144 h, 6 days treatment. Format: cell-based. How it is done: (§1) HepG2.2.15 (the HepG2.2.15 cell line can be produced by transfection of the HepG2 cell line as described in Sells, Chen, and Acs 1987 (Proc. Natl. Acad. Sci. USA 84: 1005-1009), and the HepG2 cell line is available from ATCC® under number HB-8065™)
(§2) HepG2.2.15 cells were plated into 96-well plate in 2% FBS culture medium at the density of 40,000 cells/well and 5,000 cells/well for HBV inhibitory activity and cytotoxicity determination, respectively. After incubation at 37° C., 5% CO2 overnight, cells were treated with medium containing compounds for 6 days with medium and compounds refreshed after 3 days of treatment. Each compound was tested in a 1:3 serial dilutions at 8 different concentrations in triplicate. The highest concentration of the compounds was 10 uM or 1 uM for anti-HBV activity assay and 100 uM for cytotoxicity determination.
The change of HBV DNA level induced by the compounds was assessed by quantitative real-time polymerase chain reaction (qPCR). Briefly, the HBV DNA in the culture medium was extracted using QIAamp 96 DNA Blood Kit according to the manual and then quantified by real-time PCR assay using the primers and probe in the table 1 below.
(§3) EC50 and CC50 values are calculated by the GRAPHPAD PRISM software.
In general terms: In qPCR the cycle at which signal appears reflects the starting amount.

A short description of data set [1]: Cytotoxicity determination by CCK-8 assay, HepG2.2.15 cells. Type of data set: cell-based. As to conditions: human, 6 days treatment. How it is done:
as §1, §2
Cell viability was determined by CCK-8 assay. After 6 days of compounds treatment, 20 μl CCK-8 reagents were added to each well of cytotoxicity assay plates. Cell plates were incubated at 37° C., 5% CO2 for 2.5 h. The absorbance at 450 nm wavelength and the absorbance at 630 nm wavelength as reference was measured.
as §3

Regarding `COC(=O)C1=C(C23C4C5C2C2C3C4C52C(=O)O)NC(c2nccs2)=NC1c1ccc(F)cc1C` (single isomer, unassigned) [Ib-21, (S*)-4-(6-(4-fluoro-2-methylphenyl)-5-(methoxycarbonyl)-2-(thiazol-2-yl)-3,6-dihydropyrimidin-4-yl)cubane-1-carboxylic Acid], the EC50 in the data set on HBV is > 50000 nM. This molecule showed a cytotoxic concentration (CC50) at 6 days in data set [1] of 250 nM.

Regarding `CCOC(=O)C1=C(C23C4C5C2C2C3C4C52C(=O)O)NC(c2nccs2)=N[C@@H]1c1cccc(F)c1Cl` (stereo in doubt) [Ib-15, (2S,3S,5S,6S,7S,8S)-4-((S*)-6-(2-chloro-3-fluorophenyl)-5-(ethoxycarbonyl)-2-(thiazol-2-yl)-3,6-dihydropyrimidin-4-yl)cubane-1-carboxylic Acid], the EC50 in the data set with HBV was > 50000 nM. Besides, half-maximal cytotoxicity in data set [1] (CC50 at 6 days) was put at 19 nM.

As for `CCOC(=O)C1=C(C23C4C5C2C2C3C4C52C(=O)O)NC(c2nccs2)=NC1c1ccc(F)cc1C` (single isomer, unassigned) [Ia-5, (R*)-4-(5-(ethoxycarbonyl)-6-(4-fluoro-2-methylphenyl)-2-(thiazol-2-yl)-3,6-dihydropyrimidin-4-yl)cubane-1-carboxylic Acid], the EC50 in the data set with HBV is > 50000 nM. In data set [1], this molecule displayed a CC50 at 6 days of 43 nM.

`CCOC(=O)C1=C(C23C4C5C2C2C3C4C52C(=O)O)NC(c2ncc(F)cc2F)=NC1c1cccc(F)c1C` (single isomer, unassigned) [Ib-18, (S*)-4-(2-(3,5-difluoropyridin-2-yl)-5-(ethoxycarbonyl)-6-(3-fluoro-2-methylphenyl)-3,6-dihydropyrimidin-4-yl)cubane-1-carboxylic Acid]: the half-maximal effective concentration (EC50) in the data set with HBV is > 12500 nM. In data set [1], this molecule yielded a cytotoxic concentration (CC50) at 6 days of 61 nM.

For the molecule `CCOC(=O)C1=C(C23C4C5C2C2C3C4C52C(=O)O)NC(c2nccs2)=N[C@H]1c1cccc(F)c1C` (single isomer, unassigned) [Ib-5, (1R,2R,3R,8S)-4-((S*)-5-(ethoxycarbonyl)-6-(3-fluoro-2-methylphenyl)-2-(thiazol-2-yl)-3,6-dihydropyrimidin-4-yl)cubane-1-carboxylic Acid], the EC50 in the data set with HBV is 49000 nM. Also, the CC50 at 6 days in data set [1] was 17 nM.

Consider `CCOC(=O)C1=C(C23C4C5C2C2C3C4C52C(=O)O)NC(c2nccs2)=NC1c1ccc(Cl)c(F)c1` (single isomer, unassigned) [Ib-23, (S*)-4-(6-(4-chloro-3-fluorophenyl)-5-(ethoxycarbonyl)-2-(thiazol-2-yl)-3,6-dihydropyrimidin-4-yl)cubane-1-carboxylic Acid], for which the EC50 in the data set with HBV was > 6250 nM. Further, in data set [1], the midpoint of cytotoxicity, the CC50 at 6 days, lay at 13 nM.

Consider `CCOC(=O)C1=C(C23C4C5C2C2C3C4C52C(=O)O)NC(c2nccs2)=N[C@@H]1c1ccc(F)c(F)c1Cl` (stereo in doubt) [Ib-7, (2S,3S,5S,6S,7S,8S)-4-((S*)-6-(2-chloro-3,4-difluorophenyl)-5-(ethoxycarbonyl)-2-(thiazol-2-yl)-3,6-dihydropyrimidin-4-yl)cubane-1-carboxylic Acid], for which the 50% effective concentration (EC50) in the data set with HBV was found to be 25000 nM. In data set [1], this molecule gave a CC50 at 6 days of 5 nM.

Consider `COC(=O)C1=C(C23C4C5C2C2C3C4C52C(=O)O)NC(c2nccs2)=N[C@@H]1c1cccc(F)c1Br` (stereo in doubt) [Ib-17, (2S,3S,5S,6S,7S,8S)-4-((S*)-6-(2-bromo-3-fluorophenyl)-5-(methoxycarbonyl)-2-(thiazol-2-yl)-3,6-dihydropyrimidin-4-yl)cubane-1-carboxylic Acid], for which it took 25000 nM to reach a half-maximal effect in the data set on HBV (EC50). Moreover, in data set [1], the CC50 at 6 days came out at 125 nM.

In the data set on HBV, `CCCOC(=O)C1=C(C23C4C5C2C2C3C4C52C(=O)O)NC(c2nccs2)=NC1c1ccc(F)c(F)c1Cl` (single isomer, unassigned) [Ib-11, (S*)-4-(6-(2-chloro-3,4-difluorophenyl)-5-(propoxycarbonyl)-2-(thiazol-2-yl)-3,6-dihydropyrimidin-4-yl)cubane-1-carboxylic Acid] yielded an EC50 of 22000 nM. The molecule further came in with a CC50 at 6 days in data set [1] of 52 nM.

For `COC(=O)C1=C(C23C4C5C2C2C3C4C52C(=O)O)NC(c2nccs2)=N[C@@H]1c1ccc(F)c(F)c1C` (single isomer, unassigned) [Ia-3], the concentration for a half-maximal effect (EC50) with HBV is > 50000 nM. This molecule also had a CC50 at 6 days in data set [1] of 45 nM.

For `COC(=O)C1=C(C23C4C5C2C2C3C4C52C(=O)O)NC(c2ncc(F)cc2F)=NC1c1cccc(F)c1C` (single isomer, unassigned) [Ib-26, (S*)-4-(2-(3,5-difluoropyridin-2-yl)-5-(methoxycarbonyl)-6-(3-fluoro-2-methylphenyl)-3,6-dihydropyrimidin-4-yl)cubane-1-carboxylic Acid], in the data set with HBV, the EC50 is > 12500 nM. Moreover, the half-maximal cytotoxic concentration (CC50) at 6 days in data set [1] came out at 160 nM.

With `CCOC(=O)C1=C(C23C4C5C2C2C3C4C52C(=O)O)NC(c2nccs2)=N[C@H]1c1ccc(F)cc1` (stereo in doubt) [Ib-24, (2S,3S,5S,6S,7S,8S)-4-((S*)-5-(ethoxycarbonyl)-6-(4-fluorophenyl)-2-(thiazol-2-yl)-3,6-dihydropyrimidin-4-yl)cubane-1-carboxylic Acid], the EC50 in the data set with HBV is > 25000 nM. Moreover, half-maximal cytotoxicity in data set [1] (CC50 at 6 days) was put at 223 nM.

Regarding `CCOC(=O)C1=C(C23C4C5C2C2C3C4C52C(=O)O)NC(c2nccs2)=N[C@@H]1c1ccccc1Cl` (stereo in doubt) [Ib-25, (2S,3S,5S,6S,7S,8S)-4-((S*)-6-(2-chlorophenyl)-5-(ethoxycarbonyl)-2-(thiazol-2-yl)-3,6-dihydropyrimidin-4-yl)cubane-1-carboxylic Acid], the EC50 in the data set on HBV was > 50000 nM. In data set [1], this molecule returned a CC50 at 6 days of 65 nM.

In the case of `COC(=O)C1=C(C23C4C5C2C2C3C4C52C(=O)O)NC(c2nccn2C)=NC1c1ccc(F)c(F)c1Cl` (single isomer, unassigned) [Ia-2, (R*)-4-(6-(2-chloro-3,4-difluorophenyl)-5-(methoxycarbonyl)-2-(1-methyl-1H-imidazol-2-yl)-3,6-dihydropyrimidin-4-yl)cubane-1-carboxylic Acid], in the data set on HBV, the EC50 is > 100000 nM. In data set [1], this molecule had a CC50 at 6 days of 295 nM.

In the data set on HBV, `COC(=O)C1=C(C23C4C5C2C2C3C4C52c2nc(C(=O)O)co2)NC(c2nccs2)=N[C@@H]1c1ccc(F)cc1Cl` (single isomer, unassigned) [Ib-2, 2-((1R,2R,3R,8S)-4-((S*)-6-(2-chloro-4-fluoro-phenyl)-5-(methoxycarbonyl)-2-(thiazol-2-yl)-3,6-dihydropyrimidin-4-yl)cuban-1-yl)oxazole-4-carboxylic Acid] registered an EC50 of 24000 nM. In addition, in data set [1], the 50% cytotoxic concentration (CC50) at 6 days was determined as 110 nM.

The record behind these values is patent US20220267313A1, “DIHYDROPYRIMIDINE DERIVATIVES AND USES THEREOF IN THE TREATMENT OF HBV INFECTION OR OF HBV-INDUCED DISEASES” (Janssen Sciences Ireland Unlimited Company, priority 2019, published 2022).
